FAM = 5(6)-carboxyfluorescein
Tested on: NSC-34 cells
Experiment: Evaluation of cell membrane permeability (flow cytometer, mean fluorescence intensity of cells cultured with the construct)
Format: cell-based, mouse
Conditions: mean fluorescence intensity (FL2 detector), 10 µM construct or FAM, 0.5% DMSO, 20 hours at 37°C, 5% CO2
Procedure: As the eukaryotic cells, NSC-34 cells (mouse motor neuron-like hybrid cell line) were used and the cell membrane permeability of the prepared construct was evaluated.
The NSC-34 cell was cultured in 10% fetal bovine serum (FBS)-containing Dulbecco's modified Eagle's medium (DMEM (Cat No. 044-29765, manufactured by FUJIFILM Wako Pure Chemical Corporation)), which is a culture medium.
The NSC-34 cell that adhered to a culture plate was cleaned with PBS and then, a 0.25%-trypsin/EDTA solution was added thereto, and incubation was performed for three minutes at 37°C. […]
Regarding the obtained cells (cell pellet), the cell membrane permeability was analyzed using a flow cytometer. […]
Using the aforementioned flow cytometer, gating based on forward scatter (FSC) and side scatter (SSC) was performed to set a gate about a cell group to be analyzed, and the fluorescence intensity was measured about the cell group in this gate. Note that the number of cells of the cell group to be analyzed was set to about 10000, and the analysis was performed. The fluorescence intensity was measured using a fluorescence detector FL2 of the flow cytometer (optimum detection wavelength around 543 nm) capable of detecting the fluorescence wavelength of FAM. […]

5(6)-carboxyfluorescein [Example 6]
MFI: 8.83

Ac-KKRTLRKSNRKKR-FAM (Ac-KKRTLRKSNRKKR-{FAM}) [Example 5]
MFI: 22.4

— patent publication EP4759825A1, “PEPTIDE FRAGMENT AND USE THEREOF” (Toagosei Co., Ltd., priority 2023, dated 2026)
